Results reported in US20220009920A1 (GB005, Inc., priority 2020, published 2022).

What was measured:
Assay in all cases: Large panel kinase profiling
Format in all cases: biochemical
Conditions in all cases: 1 μM test article, 1 mM ATP
CLK3 = biological target: T1, CLK3 (Homo sapiens, UniProt P49761)
T1 construct: AssayQuant Technologies, Inc. (service laboratory)
How it was run: (§1)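 Steps: combine kinase, CSox-Sensor substrate, 1 mM ATP and 1 μM compound; seal and incubate at 30° C.; read top fluorescence kinetically each minute, Ex 360 nm/Em 485 nm.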

DAPK1 = biological target: T2, DAPK1 (Homo sapiens, UniProt P53355)
T2 construct: AssayQuant Technologies, Inc. (service laboratory)
How it was run: as §1

EPHB3 = biological target: T3, EPHB3 (Homo sapiens, UniProt P54753)
T3 sequence (P54753 34-998): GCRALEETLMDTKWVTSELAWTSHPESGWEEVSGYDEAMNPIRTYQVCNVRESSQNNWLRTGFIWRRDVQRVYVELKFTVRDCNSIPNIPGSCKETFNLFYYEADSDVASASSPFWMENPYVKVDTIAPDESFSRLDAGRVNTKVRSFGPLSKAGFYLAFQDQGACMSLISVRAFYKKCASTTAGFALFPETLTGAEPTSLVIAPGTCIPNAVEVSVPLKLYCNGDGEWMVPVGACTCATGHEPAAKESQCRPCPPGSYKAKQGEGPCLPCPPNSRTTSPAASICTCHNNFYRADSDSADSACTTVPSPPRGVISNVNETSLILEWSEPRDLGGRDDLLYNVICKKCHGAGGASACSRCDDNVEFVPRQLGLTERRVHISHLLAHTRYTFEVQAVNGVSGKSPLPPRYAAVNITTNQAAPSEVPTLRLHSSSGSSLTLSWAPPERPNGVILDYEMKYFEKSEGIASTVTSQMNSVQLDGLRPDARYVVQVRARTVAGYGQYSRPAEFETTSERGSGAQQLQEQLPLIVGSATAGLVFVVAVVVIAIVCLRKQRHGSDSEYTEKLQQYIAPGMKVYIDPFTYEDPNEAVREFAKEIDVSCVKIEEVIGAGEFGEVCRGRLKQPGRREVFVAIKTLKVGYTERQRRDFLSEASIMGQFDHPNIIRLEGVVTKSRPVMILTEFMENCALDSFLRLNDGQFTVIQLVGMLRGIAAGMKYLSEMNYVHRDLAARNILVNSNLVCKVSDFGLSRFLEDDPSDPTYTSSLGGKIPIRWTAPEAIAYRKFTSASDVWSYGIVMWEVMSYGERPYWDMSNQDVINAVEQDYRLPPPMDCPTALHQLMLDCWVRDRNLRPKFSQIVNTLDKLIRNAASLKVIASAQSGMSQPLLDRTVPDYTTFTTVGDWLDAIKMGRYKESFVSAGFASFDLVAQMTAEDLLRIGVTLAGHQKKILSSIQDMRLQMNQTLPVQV
How it was run: as §1

MASTL = biological target: T4, MASTL (Homo sapiens, UniProt Q96GX5)
T4 construct: AssayQuant Technologies, Inc. (assay service)
T4 sequence (Q96GX5 1-879): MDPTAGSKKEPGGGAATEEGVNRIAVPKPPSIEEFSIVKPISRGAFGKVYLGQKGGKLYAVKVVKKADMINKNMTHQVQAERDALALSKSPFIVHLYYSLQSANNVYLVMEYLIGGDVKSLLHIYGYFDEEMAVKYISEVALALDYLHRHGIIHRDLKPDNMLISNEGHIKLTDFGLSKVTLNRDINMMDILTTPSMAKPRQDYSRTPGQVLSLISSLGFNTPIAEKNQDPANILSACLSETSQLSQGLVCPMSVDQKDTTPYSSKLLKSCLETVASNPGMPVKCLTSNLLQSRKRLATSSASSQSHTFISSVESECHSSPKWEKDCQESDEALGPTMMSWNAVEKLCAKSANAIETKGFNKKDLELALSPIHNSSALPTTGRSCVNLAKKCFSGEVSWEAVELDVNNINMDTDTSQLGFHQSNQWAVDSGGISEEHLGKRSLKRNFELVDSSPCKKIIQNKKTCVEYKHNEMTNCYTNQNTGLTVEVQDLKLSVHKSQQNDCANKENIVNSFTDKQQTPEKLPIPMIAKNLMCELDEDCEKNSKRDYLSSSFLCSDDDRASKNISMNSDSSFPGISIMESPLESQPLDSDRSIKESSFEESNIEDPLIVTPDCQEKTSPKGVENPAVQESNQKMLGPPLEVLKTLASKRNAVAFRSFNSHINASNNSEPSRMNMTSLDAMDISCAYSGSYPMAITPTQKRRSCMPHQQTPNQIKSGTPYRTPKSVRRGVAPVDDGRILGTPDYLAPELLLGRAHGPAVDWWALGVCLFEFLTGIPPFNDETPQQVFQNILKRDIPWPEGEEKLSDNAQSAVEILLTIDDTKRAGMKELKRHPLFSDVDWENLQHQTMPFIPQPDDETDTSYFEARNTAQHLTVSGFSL
How it was run: as §1

PASK = PASK (Homo sapiens, UniProt Q96RG2)
How it was run: as §1

SGK1 = biological target: T5, SGK1 (Homo sapiens, UniProt O00141)
T5 construct: AssayQuant Technologies, Inc. (contract assay)
T5 sequence (O00141 1-431): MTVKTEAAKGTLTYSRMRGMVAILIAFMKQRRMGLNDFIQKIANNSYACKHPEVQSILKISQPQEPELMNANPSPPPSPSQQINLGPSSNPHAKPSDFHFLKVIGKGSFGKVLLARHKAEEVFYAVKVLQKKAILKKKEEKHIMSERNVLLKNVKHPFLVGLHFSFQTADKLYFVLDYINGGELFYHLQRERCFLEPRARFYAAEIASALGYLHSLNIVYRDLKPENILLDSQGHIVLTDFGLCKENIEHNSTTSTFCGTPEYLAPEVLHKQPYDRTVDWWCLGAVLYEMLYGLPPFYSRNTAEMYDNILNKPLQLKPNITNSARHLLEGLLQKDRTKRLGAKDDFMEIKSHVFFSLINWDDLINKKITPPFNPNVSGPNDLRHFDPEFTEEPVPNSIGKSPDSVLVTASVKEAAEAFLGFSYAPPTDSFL
How it was run: as §1

SRC = biological target: T6, SRC (Homo sapiens, UniProt P12931)
T6 construct: AssayQuant Technologies, Inc. (contract assay)
How it was run: as §1

PASK, sequence (Q96RG2 whole entry): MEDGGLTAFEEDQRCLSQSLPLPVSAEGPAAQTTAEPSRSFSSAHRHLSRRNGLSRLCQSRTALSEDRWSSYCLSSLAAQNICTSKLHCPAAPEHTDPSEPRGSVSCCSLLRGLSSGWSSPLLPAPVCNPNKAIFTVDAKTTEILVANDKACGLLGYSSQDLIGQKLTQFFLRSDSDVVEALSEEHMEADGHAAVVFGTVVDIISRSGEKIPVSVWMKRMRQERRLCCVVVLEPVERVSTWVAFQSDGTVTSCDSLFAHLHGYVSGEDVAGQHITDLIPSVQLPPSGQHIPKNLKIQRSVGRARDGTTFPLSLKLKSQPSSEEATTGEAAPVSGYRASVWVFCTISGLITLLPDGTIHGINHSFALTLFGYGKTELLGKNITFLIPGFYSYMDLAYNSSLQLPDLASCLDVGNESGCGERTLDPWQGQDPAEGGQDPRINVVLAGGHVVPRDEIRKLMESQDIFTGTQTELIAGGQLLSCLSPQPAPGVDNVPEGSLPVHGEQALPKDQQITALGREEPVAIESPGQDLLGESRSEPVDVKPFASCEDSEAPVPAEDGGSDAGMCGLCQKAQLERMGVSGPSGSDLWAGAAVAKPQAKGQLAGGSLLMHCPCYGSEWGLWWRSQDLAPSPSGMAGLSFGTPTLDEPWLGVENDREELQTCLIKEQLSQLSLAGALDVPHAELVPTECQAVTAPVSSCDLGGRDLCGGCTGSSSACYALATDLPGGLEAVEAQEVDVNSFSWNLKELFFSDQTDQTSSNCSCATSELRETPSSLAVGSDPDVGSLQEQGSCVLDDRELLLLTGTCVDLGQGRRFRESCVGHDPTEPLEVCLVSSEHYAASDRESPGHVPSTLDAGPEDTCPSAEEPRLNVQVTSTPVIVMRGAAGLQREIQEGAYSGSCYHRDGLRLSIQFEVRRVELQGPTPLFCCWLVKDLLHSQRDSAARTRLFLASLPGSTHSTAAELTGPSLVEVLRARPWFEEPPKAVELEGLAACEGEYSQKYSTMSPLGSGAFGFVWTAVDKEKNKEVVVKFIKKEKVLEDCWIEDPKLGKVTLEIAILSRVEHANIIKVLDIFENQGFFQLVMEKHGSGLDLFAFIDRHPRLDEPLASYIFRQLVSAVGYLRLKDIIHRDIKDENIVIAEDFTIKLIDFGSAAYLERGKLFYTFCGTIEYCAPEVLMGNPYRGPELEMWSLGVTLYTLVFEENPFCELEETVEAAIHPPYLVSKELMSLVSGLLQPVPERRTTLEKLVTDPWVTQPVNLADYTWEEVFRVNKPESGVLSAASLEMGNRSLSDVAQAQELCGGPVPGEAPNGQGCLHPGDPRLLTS
T6 sequence (P12931 whole entry, species assumed): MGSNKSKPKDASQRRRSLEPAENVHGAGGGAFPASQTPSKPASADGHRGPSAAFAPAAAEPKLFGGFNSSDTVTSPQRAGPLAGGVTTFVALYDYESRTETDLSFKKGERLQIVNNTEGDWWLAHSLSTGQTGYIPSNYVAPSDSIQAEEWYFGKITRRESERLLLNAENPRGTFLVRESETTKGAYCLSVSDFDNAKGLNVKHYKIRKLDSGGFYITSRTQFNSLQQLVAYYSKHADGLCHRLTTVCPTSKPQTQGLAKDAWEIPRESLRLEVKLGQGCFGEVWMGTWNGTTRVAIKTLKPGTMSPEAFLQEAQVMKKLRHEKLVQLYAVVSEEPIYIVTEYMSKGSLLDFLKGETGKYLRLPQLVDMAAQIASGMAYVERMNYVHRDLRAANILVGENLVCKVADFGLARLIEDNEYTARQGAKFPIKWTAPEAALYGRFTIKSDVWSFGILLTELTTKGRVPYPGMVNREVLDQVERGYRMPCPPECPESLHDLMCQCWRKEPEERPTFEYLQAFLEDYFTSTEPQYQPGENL
T1 sequence (P49761 whole entry, species assumed): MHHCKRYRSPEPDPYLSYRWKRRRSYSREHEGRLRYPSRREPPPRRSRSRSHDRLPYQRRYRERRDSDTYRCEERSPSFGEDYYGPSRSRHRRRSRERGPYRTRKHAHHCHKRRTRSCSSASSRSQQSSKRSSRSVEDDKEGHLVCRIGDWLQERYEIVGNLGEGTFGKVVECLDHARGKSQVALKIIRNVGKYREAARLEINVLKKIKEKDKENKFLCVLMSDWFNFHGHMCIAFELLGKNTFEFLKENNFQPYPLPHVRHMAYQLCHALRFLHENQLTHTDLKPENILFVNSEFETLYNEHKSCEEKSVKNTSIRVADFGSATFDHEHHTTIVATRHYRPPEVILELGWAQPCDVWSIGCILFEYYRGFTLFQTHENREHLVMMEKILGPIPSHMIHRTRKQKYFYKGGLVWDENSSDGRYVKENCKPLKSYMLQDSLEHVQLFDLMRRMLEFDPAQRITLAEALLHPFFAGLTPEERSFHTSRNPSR
T2 sequence (P53355 whole entry, species assumed): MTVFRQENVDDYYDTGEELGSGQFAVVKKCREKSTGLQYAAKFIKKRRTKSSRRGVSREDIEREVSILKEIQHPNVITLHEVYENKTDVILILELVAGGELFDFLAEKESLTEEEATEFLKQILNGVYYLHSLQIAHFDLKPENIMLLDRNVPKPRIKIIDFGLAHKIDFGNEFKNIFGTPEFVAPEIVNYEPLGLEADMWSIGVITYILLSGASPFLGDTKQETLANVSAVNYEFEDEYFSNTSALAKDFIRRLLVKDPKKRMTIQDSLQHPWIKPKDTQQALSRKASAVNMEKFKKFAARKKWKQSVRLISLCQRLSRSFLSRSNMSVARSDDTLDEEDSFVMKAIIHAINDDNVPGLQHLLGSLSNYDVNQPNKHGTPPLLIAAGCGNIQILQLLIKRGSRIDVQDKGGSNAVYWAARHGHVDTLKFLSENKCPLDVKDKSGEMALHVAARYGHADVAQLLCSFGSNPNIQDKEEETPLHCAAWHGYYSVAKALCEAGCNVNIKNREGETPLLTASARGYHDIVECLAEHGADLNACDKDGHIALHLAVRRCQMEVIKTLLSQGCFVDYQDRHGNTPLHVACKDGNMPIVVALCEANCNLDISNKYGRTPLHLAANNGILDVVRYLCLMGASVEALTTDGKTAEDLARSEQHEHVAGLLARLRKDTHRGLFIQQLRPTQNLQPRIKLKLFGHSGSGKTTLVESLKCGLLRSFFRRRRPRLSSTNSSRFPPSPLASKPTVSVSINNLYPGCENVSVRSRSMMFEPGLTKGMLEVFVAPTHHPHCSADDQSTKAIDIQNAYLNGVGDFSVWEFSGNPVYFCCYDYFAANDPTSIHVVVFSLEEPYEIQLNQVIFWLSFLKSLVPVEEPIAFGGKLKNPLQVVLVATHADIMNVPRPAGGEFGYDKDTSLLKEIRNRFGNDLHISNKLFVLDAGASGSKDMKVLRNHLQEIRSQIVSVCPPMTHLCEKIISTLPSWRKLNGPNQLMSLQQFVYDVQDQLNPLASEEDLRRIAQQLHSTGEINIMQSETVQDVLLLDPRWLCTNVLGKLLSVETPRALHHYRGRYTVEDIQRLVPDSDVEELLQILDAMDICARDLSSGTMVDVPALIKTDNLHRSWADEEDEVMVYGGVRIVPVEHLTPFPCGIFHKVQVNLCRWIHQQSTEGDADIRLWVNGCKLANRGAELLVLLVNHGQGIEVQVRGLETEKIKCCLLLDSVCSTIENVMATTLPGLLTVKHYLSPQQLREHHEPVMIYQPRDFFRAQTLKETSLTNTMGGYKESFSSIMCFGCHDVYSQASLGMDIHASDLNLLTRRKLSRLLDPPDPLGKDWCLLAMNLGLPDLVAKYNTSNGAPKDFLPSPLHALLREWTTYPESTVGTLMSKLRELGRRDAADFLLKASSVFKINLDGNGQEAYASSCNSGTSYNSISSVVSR

Compound	inhibition at 1 µM (CLK3) [%]	inhibition at 1 µM (DAPK1) [%]	inhibition at 1 µM (EPHB3) [%]	inhibition at 1 µM (MASTL) [%]	inhibition at 1 µM (PASK) [%]	inhibition at 1 µM (SGK1) [%]	inhibition at 1 µM (SRC) [%]
C=CC(=O)N1CCCC(c2c(F)cc(C(N)=O)c3[nH]c4c(c23)CCCCC4)C1 (single isomer, unassigned) [Compound 5-6]	-29.3	8.1	17.6	2.2	1.8	4.3	-28.3
C=CC(=O)N1CCC[C@@H](c2c(F)cc(C(N)=O)c3[nH]c4c(c23)CC2(CC4)CC2)C1 [Compound 6-2, (S)-5-(1-acryloylpiperidin-3-yl)-6-fluoro-1,2,4,9-tetrahydrospiro[carbazole-3,1′-cyclopropane]-8-carboxamide]	-0.1	22.1	-24.4	-9	-8	10.7	-7
C=CC(=O)N1CCC[C@@H](c2c(F)cc(C(N)=O)c3[nH]c4c(c23)CCC4)C1 [Compound 10-2, (S)-8-(1-acryloylpiperidin-3-yl)-7-fluoro-1,2,3,4-tetrahydrocyclo-penta[b]indole-5-carboxamide]	-19.2	-20.3	-10.1	-10.2	-8.5	14.8	-1.8
